Literature values as cited in patent publication US20050038005A1, “Method of intermittent administration of a pharmaceutical for the treatment of conditions associated with a female's menstrual cycle” (priority 2003, published 2005).

What was measured:
[1] = calcium supplementation; especially pain and water retention
[2] = magnesium supplementation, oral
[3] = administration of fluoxetine
[4] = intermittent administration for approximately fourteen days prior to the start of menses

## [Ca+2] [Calcium]
[1]
  alleviation of symptoms associated with PMS: effective treatment for alleviating some of the symptoms associated with PMS

## [Mg+2] [Magnesium]
[2]
  relief of symptoms of PMS: relieve some symptoms of PMS, particularly pain and mood fluctuations

## CNCCC(Oc1ccc(C(F)(F)F)cc1)c1ccccc1 (stereo not shown) [fluoxetine]
[3]
  amelioration of symptoms of PMS/PMDD: ameliorate the symptoms of PMS/PMDD
[4]
  efficacy in treating the symptoms of PMS: efficacious in treating the symptoms of PMS
